Measured values taken from publication PMC6234229, “The role of loops B and C in determining the potentiation of GABAA receptors by midazolam” (Pharmacology Research & Perspectives, 2018).

What was measured:
Format in all cases: cell-based
[1] = biological target: T1, α3(H126R)β2γ2 GABAA receptor (Homo sapiens, UniProt P18507+P34903+P47870, H154R); experiment: GABA concentration-response assay, whole-cell patch clamp, HEK293T; details: GABA Hill fit
T1 construct: expressed in transfected cells; host or cells: HEK293T
From the text: (§1) Human (Homo sapiens) GABAA subunits (α1‐6, β2, γ2s) were subcloned into pcDNA3.1+ vectors with a cytomegalovirus (CMV) promoter. The hβ2 and hα3 sequences were humanized rat (Rattus norvegicus) cDNA with amino acid substitutions made to match the human protein sequence. The α1‐3, α5, β2, and γ2s subunits were a generous gift from Neil L. Harrison (Columbia University Medical Center, NY). The α4 subunit was obtained from GenScript (Piscataway, NJ), and the α6 subunit was a generous gift from Robert L. McDonald (Vanderbilt University, TN). All point mutations (listed in Figure 1C) were introduced using the QuikChange Lightening site‐directed mutagenesis kit (Agilent Technologies, Santa Clara, CA) according to the manufacturer's instructions and were confirmed by sequencing (Eurofins MWG Operon, Louisville, KY).
(§2) Human embryonic kidney cells containing the SV40 T‐antigen (HEK293T) were acquired from American Type Culture Collection (ATCC®, Manassas, VA), catalogue number, CRL3216. HEK293T cells were maintained at 37°C and 5% CO2 in Eagle Minimum Essential Medium (MEM) supplemented with 5% fetal bovine serum (Atlanta Biologicals Inc., Flowery Branch, GA), 40 μM L‐glutamine, 100 U/mL penicillin and 0.1 mM streptomycin. Cells were passaged regularly when they reached 70% confluency using trypsin. Cells were not passaged more than 22 times. New cells were revived from frozen stocks at passage 2‐4. Cells used for in vitro electrophysiology experiments were grown on poly‐D‐lysine‐coated glass coverslips (No.2, VWR, Radnor, PA) and transfected with X‐tremeGENE (Roche Diagnostics, Indianapolis, IN) with the desired receptor subunit cDNAs at a 1:1:1 ratio to express αxβ2γ2s receptors (2 μg total cDNA) and with 0.5 μg green fluorescent protein (GFP) as an expression marker. The γ2s incorporation into receptors was tested with zinc inhibition assays regularly.24 Patch clamp experiments were performed on cells at 24‐72 hours post‐transfection. All experiments were performed at 22°C. Experiments consisted of at least five cells recorded per day from at least two transfections across 3‐4 days to control for cell health and transfection efficiency. At least three cells expressing wild‐type receptors were recorded on days that mutant receptors were tested to provide a time‐matched expression control. All reagents were purchased from Sigma‐Aldrich (St. Louis, MO) unless otherwise stated.
(§3) Extracellular solution contained 161 mM NaCl, 3 mM KCl, 1 mM MgCl2, 1.5 mM CaCl2, 10 mM HEPES, and 6 mM D‐glucose, adjusted to pH 7.4 with NaOH (320‐330 mOsm). […] The perfusion system was controlled by protocols written in pClamp 9 (Molecular Devices, LLC., Sunnyvale, CA). Whole‐cell currents were recorded at ‐60 mV, filtered at 100 Hz and sampled at 200 Hz with a MultiClamp 700B amplifier (Molecular Devices, LLC) and DigiData 1322A (Molecular Devices, LLC) digitizer. […] Cells were recorded with the midazolam protocol no more than two times to avoid desensitization and incomplete washout or irreversible modulation.
(§4) Recordings were analyzed using MATLAB (Math Works, Inc., Natick, MA). […] The maximum peak current, EC50 and Hill coefficient were estimated for assays from each cell. When Hill parameters are estimated from whole‐cell recordings, the changes in the parameters across receptor conditions can be ascribed to the following changes in receptor physiology. Changes in maximum current can be due to changes in the single‐channel conductance or the rate of desensitization. Changes in cell surface receptor expression can cause minor changes in maximum current, but are unlikely to occur in the time course of our experimental protocol. […] More often minor changes in the Hill coefficient are attributed to the altered homogeneity in the receptor population expressed by the HEK293T cell. For example, a shallower Hill coefficient could be caused by a shift in the population of receptors from mostly αβγ receptors to a combination of both αβ and αβγ receptors.

[2] = biological target: T2, α6β2γ2 GABAA receptor (Homo sapiens, UniProt P18507+P47870+Q16445); experiment: as above; details: GABA Hill fit
T2 construct: expressed in transfected cells; host or cells: HEK293T
From the text: as §1, §2, §3, §4

[3] = biological target: T3, α5(P166T)β2γ2 GABAA receptor (Homo sapiens, UniProt P18507+P31644+P47870, P197T); experiment: as above; details: GABA Hill fit
T3 construct: expressed in transfected cells; host or cells: HEK293T
From the text: as §1, §2, §3, §4

[4] = biological target: T4, α5(S209I)β2γ2 GABAA receptor (Homo sapiens, UniProt P18507+P31644+P47870, S240I); experiment: as above; details: GABA Hill fit
T4 construct: expressed in transfected cells; host or cells: HEK293T
From the text: as §1, §2, §3, §4

[5] = biological target: T5, α3(T187P)β2γ2 GABAA receptor (Homo sapiens, UniProt P18507+P34903+P47870, T215P); experiment: Midazolam potentiation of EC10 GABA currents, whole-cell patch clamp, HEK293T
T5 construct: expressed in transfected cells; host or cells: HEK293T

[6] = biological target: T1, α3(H126R)β2γ2 GABAA receptor; experiment: as above
[7] = biological target: T6, α4(P161T)β2γ2 GABAA receptor (Homo sapiens, UniProt P18507+P47870+P48169, P196T); experiment: as above; details: for Midazolam potentiation (%): α4(P161T)
T6 construct: expressed in transfected cells; host or cells: HEK293T

[8] = biological target: T7, α1(H102R)β2γ2 GABAA receptor (Homo sapiens, UniProt P14867+P18507+P47870, H129R); experiment: as above
T7 construct: expressed in transfected cells; host or cells: HEK293T

[9] = biological target: T8, α6(N204I)β2γ2 GABAA receptor (Homo sapiens, UniProt P18507+P47870+Q16445, N223I); experiment: as above
T8 construct: expressed in transfected cells; host or cells: HEK293T

T5 sequence (P34903 29-492 T215P): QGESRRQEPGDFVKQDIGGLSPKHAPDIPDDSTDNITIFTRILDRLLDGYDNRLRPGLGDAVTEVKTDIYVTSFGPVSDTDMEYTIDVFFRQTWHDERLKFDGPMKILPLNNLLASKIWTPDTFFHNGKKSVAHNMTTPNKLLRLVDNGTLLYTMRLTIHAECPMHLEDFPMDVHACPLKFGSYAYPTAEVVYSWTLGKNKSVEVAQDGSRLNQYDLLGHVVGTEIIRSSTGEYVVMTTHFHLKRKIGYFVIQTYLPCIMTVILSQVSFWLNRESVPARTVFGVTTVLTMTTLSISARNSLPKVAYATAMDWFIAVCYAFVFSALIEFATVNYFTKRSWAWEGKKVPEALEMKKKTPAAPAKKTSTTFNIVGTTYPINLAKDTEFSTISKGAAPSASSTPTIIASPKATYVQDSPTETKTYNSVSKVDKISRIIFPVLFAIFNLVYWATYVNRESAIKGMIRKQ
T5 sequence (P47870 25-512 limits assumed): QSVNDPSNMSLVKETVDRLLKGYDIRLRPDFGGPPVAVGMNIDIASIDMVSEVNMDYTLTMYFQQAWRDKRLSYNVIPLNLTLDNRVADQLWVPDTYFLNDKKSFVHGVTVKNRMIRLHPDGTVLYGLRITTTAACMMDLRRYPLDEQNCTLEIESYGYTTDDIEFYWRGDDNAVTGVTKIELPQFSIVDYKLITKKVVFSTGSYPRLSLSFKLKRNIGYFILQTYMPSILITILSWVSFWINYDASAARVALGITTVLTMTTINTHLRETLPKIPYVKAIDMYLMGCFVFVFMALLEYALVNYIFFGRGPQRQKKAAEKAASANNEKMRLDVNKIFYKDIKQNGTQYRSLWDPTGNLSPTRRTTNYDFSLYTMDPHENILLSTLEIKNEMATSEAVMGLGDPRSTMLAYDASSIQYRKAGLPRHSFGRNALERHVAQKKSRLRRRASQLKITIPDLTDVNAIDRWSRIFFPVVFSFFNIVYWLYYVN
T5 sequence (P18507 40-467 isoform P18507-1 limits assumed, stated change not applied): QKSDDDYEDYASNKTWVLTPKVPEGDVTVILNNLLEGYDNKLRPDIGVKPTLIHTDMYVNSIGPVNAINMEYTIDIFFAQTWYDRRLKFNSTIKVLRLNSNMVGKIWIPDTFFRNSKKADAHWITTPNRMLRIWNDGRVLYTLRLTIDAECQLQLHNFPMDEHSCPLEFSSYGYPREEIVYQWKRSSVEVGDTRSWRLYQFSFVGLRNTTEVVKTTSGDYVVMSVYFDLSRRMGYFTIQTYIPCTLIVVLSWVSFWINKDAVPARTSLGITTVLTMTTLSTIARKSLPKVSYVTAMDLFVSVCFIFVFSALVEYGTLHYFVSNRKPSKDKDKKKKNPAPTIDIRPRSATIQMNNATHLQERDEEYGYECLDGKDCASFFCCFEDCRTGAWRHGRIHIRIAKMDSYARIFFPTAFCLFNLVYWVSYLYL
T7 sequence (P14867 28-456 H129R): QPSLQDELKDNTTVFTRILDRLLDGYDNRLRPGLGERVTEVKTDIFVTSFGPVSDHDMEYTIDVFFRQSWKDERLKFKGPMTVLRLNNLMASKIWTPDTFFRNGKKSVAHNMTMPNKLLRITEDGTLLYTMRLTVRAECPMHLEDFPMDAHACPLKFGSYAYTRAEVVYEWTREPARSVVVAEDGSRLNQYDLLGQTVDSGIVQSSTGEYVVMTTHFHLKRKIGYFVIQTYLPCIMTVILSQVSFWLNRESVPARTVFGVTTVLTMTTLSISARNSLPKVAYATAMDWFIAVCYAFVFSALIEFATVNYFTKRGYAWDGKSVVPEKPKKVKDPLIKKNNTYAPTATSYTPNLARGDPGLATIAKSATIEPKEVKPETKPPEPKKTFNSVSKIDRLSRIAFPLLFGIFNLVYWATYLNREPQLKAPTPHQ
T7 sequence (P47870 25-512 limits assumed): as the sequence (P47870 25-512 limits assumed) above
T7 sequence (P18507 40-467 isoform P18507-1 limits assumed, stated change not applied): as the sequence (P18507 40-467 isoform P18507-1 limits assumed, stated change not applied) above
T1 sequence (P34903 29-492 H154R): as the sequence (P34903 29-492 T215P) above, with H126R, P187T counted along it
T1 sequence (P47870 25-512 limits assumed): as the sequence (P47870 25-512 limits assumed) above
T1 sequence (P18507 40-467 isoform P18507-1 limits assumed, stated change not applied): as the sequence (P18507 40-467 isoform P18507-1 limits assumed, stated change not applied) above

NCCCC(=O)O [GABA, γ‐aminobutyric acid]
Hill coefficient [1]: 1.519 ± 0.88 | Max Current (pA) [1]: -3597 ± 343.6 pA | Hill coefficient [2]: 1.405 ± 0.074 | Max Current (pA) [2]: -3276 ± 578.1 pA | Hill coefficient [3]: 1.420 ± 0.064 | Max Current (pA) [3]: -4543 ± 553.0 pA | Hill coefficient [4]: 1.434 ± 0.059 | Max Current (pA) [4]: -6073 ± 742.0 pA

Cc1ncc2n1-c1ccc(Cl)cc1C(c1ccccc1F)=NC2 [midazolam]
EC50 [5]: 55.2 ± 2.91 nM | Midazolam potentiation (%) ([5]; 10 nM MDZ + EC10 GABA, α3(T187P)): 23.71 ± 6.37% | Midazolam potentiation (%) ([5]; 50 nM MDZ + EC10 GABA, α3(T187P)): 92.47 ± 12.51% | Midazolam potentiation (%) ([5]; 100 nM MDZ + EC10 GABA, α3(T187P)): 168.56 ± 23.08% | Midazolam potentiation (%) ([5]; 500 nM MDZ + EC10 GABA, α3(T187P)): 212.97 ± 30.06% | Midazolam potentiation (%) ([5]; 1000 nM MDZ + EC10 GABA, α3(T187P)): 213.30 ± 30.99% | Max potentiation (%) ([5]; α3(T187P), Hill fit, midazolam 10-1000 nM + EC10 GABA): 219.6 ± 32.3% | Hill coefficient ([5]; α3(T187P), midazolam Hill fit): 1.963 ± 0.224 | responsiveness to midazolam potentiation [6]: abolished the ability of receptors to respond to midazolam potentiation | Midazolam potentiation (%) ([6]; 10 nM MDZ + EC10 GABA): 3.71 ± 1.31% | Midazolam potentiation (%) ([6]; 50 nM MDZ + EC10 GABA): 3.63 ± 2.06% | Midazolam potentiation (%) ([6]; 100 nM MDZ + EC10 GABA): 8.25 ± 1.64% | Midazolam potentiation (%) ([6]; 500 nM MDZ + EC10 GABA): 7.92 ± 2.84% | Midazolam potentiation (%) ([6]; 1000 nM MDZ + EC10 GABA): 10.78 ± 2.42% | Midazolam potentiation (%) ([7]; 10 nM MDZ + EC10 GABA): 13.22 ± 3.76% | Midazolam potentiation (%) ([7]; 50 nM MDZ + EC10 GABA): 10.31 ± 5.64% | Midazolam potentiation (%) ([7]; 100 nM MDZ + EC10 GABA): 14.28 ± 5.87% | Midazolam potentiation (%) ([7]; 500 nM MDZ + EC10 GABA): 21.94 ± 5.61% | Midazolam potentiation (%) ([7]; 1000 nM MDZ + EC10 GABA): 26.43 ± 9.72% | responsiveness to midazolam potentiation ([7]; α4(P161T)β2γ2): failed to confer midazolam responsiveness | responsiveness to midazolam potentiation [8]: abolished the ability of receptors to respond to midazolam potentiation | Midazolam potentiation (%) ([8]; 10 nM MDZ + EC10 GABA): 8.10 ± 3.48% | Midazolam potentiation (%) ([8]; 50 nM MDZ + EC10 GABA): 13.07 ± 4.69% | Midazolam potentiation (%) ([8]; 100 nM MDZ + EC10 GABA): 16.99 ± 4.42% | Midazolam potentiation (%) ([8]; 500 nM MDZ + EC10 GABA): 26.78 ± 5.31% | Midazolam potentiation (%) ([8]; 1000 nM MDZ + EC10 GABA): 28.87 ± 6.18% | responsiveness to midazolam potentiation [9]: failed to convey any notable midazolam potentiation | Midazolam potentiation (%) ([9]; 10 nM MDZ + EC10 GABA): 11.98 ± 4.42% | Midazolam potentiation (%) ([9]; 50 nM MDZ + EC10 GABA): 19.07 ± 5.84% | Midazolam potentiation (%) ([9]; 100 nM MDZ + EC10 GABA): 25.21 ± 7.32% | Midazolam potentiation (%) ([9]; 500 nM MDZ + EC10 GABA): 25.85 ± 6.62% | Midazolam potentiation (%) ([9]; 1000 nM MDZ + EC10 GABA): 19.31 ± 7.32%
